Measured values from US20050148534A1, “Small molecule compositions and methods for increasing drug efficiency using compositions thereof” (priority 2003, published 2005).
Several values for one entry are separate records, joined by “and”; a condition that tells them apart may be missing. Equal entries are not always repeated. Where two headings read alike, the source gives them in different places.

Legend:
[1] = biological target: T1, Human thymidine kinase 1 (TK1) (Homo sapiens, UniProt P04183); experiment: Thymidine kinase coupled (kinetic) ATP depletion assay; assay type: biochemical; conditions: initial velocity relative to thymidine; 100 μM conjugate
T1 construct: His tag (from pET28b(+)) (N); made in house; host or cells: E. coli BL21-codon plus
T1 sequence (P04183 1-234): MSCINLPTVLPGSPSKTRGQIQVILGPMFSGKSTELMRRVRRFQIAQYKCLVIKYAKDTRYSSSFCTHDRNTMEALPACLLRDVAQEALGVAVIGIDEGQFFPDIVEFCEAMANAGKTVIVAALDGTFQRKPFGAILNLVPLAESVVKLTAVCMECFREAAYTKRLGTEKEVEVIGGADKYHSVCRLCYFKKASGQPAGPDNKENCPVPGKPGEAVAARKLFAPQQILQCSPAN
Description: Thymidine kinase, viral thymidine kinase, TK-1 deoxycytidine kinase, and deoxyguanosine kinase activities are determined by subjecting a first end of a linker used in synthesizing linker-substrate constructs to a first test. The first test may involve observing ADP formation, an obligatory co-product of phospho group transfer from ATP which is catalyzed by the kinase to the C5′ hydroxyl group or its equivalent in the nucleoside or nucleoside analog. Formation of ADP is followed by a coupled enzyme assay well known in the art. ADP, formed from kinase phosphorylation, is used by pyruvate kinase to generate pyruvate from phosphoenolpyruvate which in turn is converted to lactate by lactate dehydrogenase. The lactate results in the consumption of NADH which is followed spectrophotometrically. The rate of nucleoside phosphorylation is then directly related to the rate of decrease in the observed NADH signal.
TK1 was amplified using PCR with forward primer 5′-[…]-3′ and reverse primer 5′-[…]-3′. The PCR product was digested with Nde I and Hind III. An N-terminal His-tagged TK1 construct, TK1/pET28b(+), was generated by subcloning TK1 into the Nde I and Hind III sites of prokaryotic expression vector pET28b (+) (Novagen, San Diego, Calif.). TK1 was expressed from TK1/pET28b(+) using E. coli strain BL21-codon plus (Stratagene, San Diego, Calif.) and purified by Ni column chromatography.
A coupled (kinetic) ATP depletion assay was developed to measure thymidine kinase activity. The reaction contained 100 mM Tris HCl, pH 7.5, 20 mM MgCl2, 100 mM KCl, 0.4 mM PEP, 0.2 mM NADH, Pyruvate Kinase (0.7 units)/Lactate Dehydrogenase (1.0 unit) (Sigma #PO294), 2.5-10 μg Thymidine Kinase, 100 μM thymidine or thymidine-drug conjugate in a volume of 75 μl. ATP (5 mM in 25 μl H2O) was added to initiate the reaction and the velocity of ATP depletion was monitored at 340 nm continuously for 15 minutes.

[2] = biological target: T2, TK1 (Homo sapiens, UniProt P04183); conditions: substrate activity; literature (Johansson et al.; Eriksson et al., BBCR 1991; 176, 586), source per Table 3; cited from earlier work
T2 sequence (P04183 1-234): T1 sequence (P04183 1-234)

[3] = biological target: T3, TK2 (Homo sapiens, UniProt O00142); design: unit not given here; conditions: substrate activity, literature (Johansson et al.; Eriksson et al.; Wang et al.), source per Table 3, cited from earlier work
T3 sequence (O00142 34-265): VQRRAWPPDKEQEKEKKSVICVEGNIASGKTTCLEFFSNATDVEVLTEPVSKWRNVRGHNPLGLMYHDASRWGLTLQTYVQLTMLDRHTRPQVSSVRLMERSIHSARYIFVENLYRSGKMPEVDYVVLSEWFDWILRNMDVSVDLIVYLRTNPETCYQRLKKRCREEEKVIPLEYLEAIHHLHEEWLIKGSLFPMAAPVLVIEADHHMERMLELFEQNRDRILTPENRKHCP

[4] = biological target: deoxycytidine kinase (dCK) (Homo sapiens, UniProt P27707); conditions: substrate activity; literature (Johansson et al.; Eriksson et al.; Wang et al.), source per Table 3; cited from earlier work
Sequence of deoxycytidine kinase (dCK) (P27707 whole entry, species assumed): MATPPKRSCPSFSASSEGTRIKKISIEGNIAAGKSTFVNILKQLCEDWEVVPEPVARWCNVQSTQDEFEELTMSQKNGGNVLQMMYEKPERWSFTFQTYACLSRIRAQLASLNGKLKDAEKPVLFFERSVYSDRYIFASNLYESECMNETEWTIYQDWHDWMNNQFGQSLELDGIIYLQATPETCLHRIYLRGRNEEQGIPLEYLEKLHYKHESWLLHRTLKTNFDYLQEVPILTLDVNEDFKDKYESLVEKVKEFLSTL

[5] = test system: tubulin; experiment: Fluorescence-based microtubule polymerization assay (MPA); assay type: biochemical; conditions: mean percentage of paclitaxel or vinblastine activity; 0.75-10 micromolar
Source text: Drug-linker constructs may further be screened using functional assays predictive of biological activity. […] Tubulin assembly or inhibition thereof may be monitored by fluorescence using the CytoDYNAMIX Screen™ 10 kit available from Cytoskeleton (1830 S. Acoma St., Denver, Colo.). […] Emission is monitored at 405 nm with excitation at 360 nm. […] Tubulin assembly or inhibition may also be monitored by light scattering which is approximated by the apparent absorption at 350 nm. For paclitaxel drug conjugates BSA is employed to prevent aggregation and glycerol, which is a tubulin polymerization enhancer, is omitted from the kit to increase the signal to noise ratio.
The assay kit (#BK011) was purchased from Cytoskeleton (Denver, Colo.). The assays were carried out according to the manufacturer's instructions, except that 1 mg/ml BSA (Sigma #A3059) was included in all assays. […] Parent drugs and conjugates were tested at 0.75, 1.5, 3 and 10 micromolar final concentration and results represent a comparison of conjugate and parent drug curves obtained from the linear range of the dose responses.

Molecule	TK1 [2]	TK2 [3]	dCK [4]	further results
COc1cccc2c1C(=O)c1c(O)c3c(c(O)c1C2=O)C[C@@](O)(C(=O)CO)C[C@@H]3O[C@H]1C[C@H](NCCCN2C(=O)CC(SCCC(=O)NCCOCCOCCOCCn3c(=O)c(C)cn([C@H]4C[C@H](O)[C@@H](CO)O4)c3=O)C2=O)[C@H](O)[C@H](C)O1.O=C(O)C(F)(F)F (stereo partly drawn) [DOX-3′Alk-[MALaPEG](22)-N3-THY]				Ave. TK1 Kinase Act. [1]: A (A<20)
C#C[C@H]1C[C@H](n2cc(C)c(=O)[nH]c2=O)O[C@@H]1CO [R4 = H, R3 = CCH]	<1	<1		
Cc1cn([C@H]2C[C@H](O)[C@@H](CO)O2)c(=O)[nH]c1=O [R4 = H, R3 = OH (Thy), Thy]	100	100	2	
CC[C@]1(O)C[C@@H]2CN(CCc3c([nH]c4ccccc34)[C@@](C(=O)OC)(c3cc4c(cc3OC)N(C)[C@H]3[C@@](O)(C(=O)NCCCCn5c(=O)c(C)cn([C@H]6C[C@H](O)[C@@H](CO)O6)c5=O)[C@H](O)[C@]5(CC)C=CCN6CC[C@]43[C@@H]65)C2)C1 [VBL-3Am-ALK(4)-N3-THY]				Ave. TK1 Kinase Act. [1]: B (B=20-40); Ave. MPA Act [5]: C (C>100)
CC[C@]1(O)C[C@@H]2CN(CCc3c([nH]c4ccccc34)[C@@](C(=O)OC)(c3cc4c(cc3OC)N(C)[C@H]3[C@@](O)(C(=O)NCCOCCOCCOCCn5c(=O)c(C)cn([C@H]6C[C@H](O)[C@@H](CO)O6)c5=O)[C@H](O)[C@]5(CC)C=CCN6CC[C@]43[C@@H]65)C2)C1 [VBL-3Am-PEG(11)-N3-THY]				Ave. TK1 Kinase Act. [1]: B (B=20-40); Ave. MPA Act [5]: A (A<60)
CC[C@]1(O)C[C@@H]2CN(CCc3c([nH]c4ccccc34)[C@@](C(=O)OC)(c3cc4c(cc3OC)N(C)[C@H]3[C@@](O)(C(=O)NCCOCCn5c(=O)c(C)cn([C@H]6C[C@H](O)[C@@H](CO)O6)c5=O)[C@H](O)[C@]5(CC)C=CCN6CC[C@]43[C@@H]65)C2)C1 [VBL-3Am-PEG(5)-N3-THY]				Ave. TK1 Kinase Act. [1]: A (A<20); Ave. MPA Act [5]: C (C>100)
Nc1ccn([C@@H]2O[C@H](CO)[C@@H](O)[C@@H]2O)c(=O)n1 [R4 = H, R5 = OH, R3 = OH (Cytosar, AraC), AraC]	<1	<1		
Cc1cn([C@H]2CC[C@@H](CO)O2)c(=O)[nH]c1=O [R4 = H, R3 = H]	40	4	<1	
O=c1[nH]c(=O)n([C@H]2C[C@H](O)[C@@H](CO)O2)cc1F [R2 = F, R4 = H, R3 = OH]	90	90		
CC(=O)O[C@@]12CO[C@@H]1C[C@H](O)[C@@]1(C)C(=O)[C@H](OC(=O)NCCOCCn3c(=O)c(C)cn([C@@H]4C[C@H](O)[C@@H](CO)O4)c3=O)C3=C(C)[C@@H](OC(=O)[C@H](O)[C@@H](NC(=O)c4ccccc4)c4ccccc4)C[C@@](O)([C@@H](OC(=O)c4ccccc4)[C@H]21)C3(C)C [PXL-10Ca-PEG(5)-N3-αTHY]				Ave. TK1 Kinase Act. [1]: A (A<20); Ave. MPA Act [5]: B (B=60-100)
Cc1cn([C@H]2C[C@H](N=[N+]=[N-])[C@@H](CO)O2)c(=O)[nH]c1=O [R4 = H, R3 = N3 (AZT), AZT]	50 and 40	5	<1	
Nc1ccn([C@H]2C[C@H](O)[C@@H](CO)O2)c(=O)n1 [R4 = H, R5 = H, R3 = OH (dC), dC]	<1	90		TK2 ([3]; listed as R2 = H, X = C (dC)): 90; TK2 ([3]; listed as R4 = H, R5 = H, R2 = H (dC)): 90; TK2 ([3]; listed as β-D-dC): 93
Cc1cn([C@@H]2O[C@H](CO)[C@@H](O)[C@@H]2F)c(=O)[nH]c1=O [R2 = CH3, R5 = F (FMAU), FMAU]	45	100		
O=c1ccn([C@H]2C[C@H](O)[C@@H](CO)O2)c(=O)[nH]1 [R2 = H, R4 = H, R3 = OH (dU), dU]	100	100	6	
O=c1[nH]c(=O)n([C@@H]2O[C@H](CO)[C@@H](O)[C@@H]2F)cc1I [R2 = I, R5 = F (FIAU), FIAU]	42	90		
CC[C@]1(O)C[C@@H]2CN(CCc3c([nH]c4ccccc34)[C@@](C(=O)OC)(c3cc4c(cc3OC)N(C)[C@H]3[C@@](O)(C(=O)NCCCCCCCCCCCCN)[C@H](O)[C@]5(CC)C=CCN6CC[C@]43[C@@H]65)C2)C1 [VBL-3Am-ALK(12)-NH2]				Ave. MPA Act [5]: B (B=60-100)
Cc1cn([C@H]2C[C@H](CN=[N+]=[N-])[C@@H](CO)O2)c(=O)[nH]c1=O [R4 = H, R3 = CH2N3]	15	3		
Nc1cc[nH]c(=O)n1 [R4 = OH, R5 = H, R2 = H (Cytosine), Cytosine]	<1	<1	20	
4-deacetyl-3-de-(methoxycarbonyl)-vinblastin-3-yl-N-{N′-Boc-2-[2-[2-[2-ethoxy]ethoxy]ethoxy]ethylamino}-aminocarbonyl) [VBL-3Am-PEG(11)-NH(B)]				Ave. MPA Act [5]: B (B=60-100)
Cc1cn([C@@H]2O[C@H](CO)[C@@H](O)[C@H]2O)c(=O)[nH]c1=O [R4 = OH, R3 = OH (RiboThymidine), RiboThymidine]	2	3		
Cc1cn([C@H]2C[C@H](F)[C@@H](CO)O2)c(=O)[nH]c1=O [R4 = H, R3 = F (FLT), FLT]	30	<1	<1	
O=c1ccn([C@H]2CC[C@@H](CO)O2)c(=O)[nH]1 [R2 = H, R4 = H, R3 = H (ddU), ddU]	10	2	<1	
CC(=O)O[C@H]1C(=O)[C@]2(C)[C@@H](OC(=O)NCCCCCCn3c(=O)c(C)cn([C@@H]4C[C@H](O)[C@@H](CO)O4)c3=O)C[C@H]3OC[C@@]3(OC(C)=O)[C@H]2[C@H](OC(=O)c2ccccc2)[C@]2(O)C[C@H](OC(=O)[C@H](O)[C@@H](NC(=O)c3ccccc3)c3ccccc3)C(C)=C1C2(C)C [PXL-7Ca-ALK(6)-N3-αTHY]				Ave. MPA Act [5]: B (B=60-100)
O=c1[nH]c(=O)n([C@H]2C[C@H](O)[C@@H](CO)O2)cc1Br [R2 = Br, R4 = H, R3 = OH]	80	10	<1	
CCc1cn([C@H]2C[C@H](O)[C@@H](CO)O2)c(=O)[nH]c1=O [R2 = Et, R4 = H, R3 = OH]	80	10		
